The source made the active and inactive calls. The rule behind the calls is not given here.
Tests used:
[1] = molecular target: T1, Protein cereblon/Histone-lysine N-methyltransferase EHMT2 (Homo sapiens, UniProt Q96KQ7+Q96SW2); test: PROTAC activity at CRBN/G9a in human PANC-1 cells assessed as induction of G9a degradation at 0.1 uM measured after 24 hrs by Western blot analysis; type: cell-based
PANC-1 [2] = test: Induction of apoptosis in human PANC-1 cells at 10 uM by Annexin V-FITC/PI staining based flow cytometry analysis; type: functional, cell-based; conditions: time 12-72 hrs, TDE = time-dependent effect
[3] = Clearance in male ICR mouse at 5 mg/kg, iv measured upto 24 hrs by LC-MS/MS analysis; type: ADME, organism-based; conditions: in vivo
PANC-1 [4] = test: Antiproliferative activity against human PANC-1 cells assessed as inhibition of cell growth measured after 72 hrs by SRB assay; type: functional, cell-based
[5] = molecular target: T1, Protein cereblon/Histone-lysine N-methyltransferase EHMT2; test: PROTAC activity at CRBN/G9a in human PANC-1 cells assessed as induction of G9a degradation at 1 uM in presence of 50 uM cycloheximide measured after 4 hrs by Western blot analysis; type: cell-based
[6] = Cmax in male ICR mouse at 20 mg/kg, ip measured upto 24 hrs by LC-MS/MS analysis; type: ADME, organism-based; conditions: in vivo
[7] = molecular target: T1, Protein cereblon/Histone-lysine N-methyltransferase EHMT2; test: PROTAC activity at CRBN/G9a in human PANC-1 cells assessed as induction of G9a degradation at 1 uM pretreated with UNC0638 for 2 hrs followed by compound addition and measured after 8 hrs by Western blot analysis; type: cell-based
PANC-1 [8] = test: Effect on H3K27me1 level in human PANC-1 cells at 0.04 to 10 uM measured after 24 hrs by Western blot analysis; type: functional, cell-based; conditions: dose 0.04-10 µM
[9] = Half life in male ICR mouse at 5 mg/kg, iv measured upto 24 hrs by LC-MS/MS analysis; type: ADME, organism-based; conditions: in vivo
PANC-1 [10] = test: Effect on H3K4me3 level in human PANC-1 cells at 0.04 to 10 uM measured after 24 hrs by Western blot analysis; type: functional, cell-based; conditions: dose 0.04-10 µM
Panc 05.04 = test: Antiproliferative activity against human Panc 05.04 cells assessed as inhibition of cell growth measured after 72 hrs by SRB assay; type: functional, cell-based
ASPC1 [11] = test: Induction of apoptosis in human ASPC1 cells at 10 uM incubated for 24 hrs in presence of 1 uM MRTX1133 by Annexin V-FITC/PI staining based flow cytometry analysis; type: functional, cell-based
ASPC1 [12] = test: Synergistic antiproliferative activity against human ASPC1 cells assessed as combination index for ED90 upto 20 uM incubated for 72 hrs in presence of MRTX1133; type: functional
PANC-1 [13] = test: Effect on G9a mRNA expression at transcriptional level in human PANC-1 cells at 0.1 to 10 uM by RT-qPCR analysis; type: functional, cell-based; conditions: dose 0.1-10 µM
PANC-1 [14] = test: Effect on cell cycle arrest in human PANC-1 cells at 5 to 10 uM measured after 24 hrs by RNaseA/PI staining based flow cytometry analysis; type: functional; conditions: dose 5-10 µM
[15] = molecular target: Protein cereblon/Histone-lysine N-methyltransferase EHMT1 (Homo sapiens) (UniProt Q9H9B1+Q96SW2); test: PROTAC activity at CRBN/GLP in human ASPC1 cells assessed as induction of GLP degradation at 0.008 to 20 uM measured after 8 hrs by Western blot analysis; type: cell-based; conditions: dose 0.008-20 µM
Protein cereblon/Histone-lysine N-methyltransferase EHMT1 (Homo sapiens), sequence (Q96SW2 whole entry, looked up): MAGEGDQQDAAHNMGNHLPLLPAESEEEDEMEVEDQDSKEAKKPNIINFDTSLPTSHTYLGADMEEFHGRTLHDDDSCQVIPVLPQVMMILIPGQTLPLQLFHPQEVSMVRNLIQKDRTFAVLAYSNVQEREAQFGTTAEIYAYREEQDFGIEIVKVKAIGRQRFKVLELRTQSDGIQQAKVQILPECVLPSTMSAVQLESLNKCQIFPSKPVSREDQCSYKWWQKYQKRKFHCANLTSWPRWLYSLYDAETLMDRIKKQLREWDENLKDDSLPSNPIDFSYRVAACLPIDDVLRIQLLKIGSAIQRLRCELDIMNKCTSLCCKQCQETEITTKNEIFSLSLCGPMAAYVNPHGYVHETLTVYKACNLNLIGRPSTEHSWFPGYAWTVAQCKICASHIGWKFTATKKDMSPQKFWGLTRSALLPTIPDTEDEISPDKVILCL
Protein cereblon/Histone-lysine N-methyltransferase EHMT1 (Homo sapiens), sequence (Q9H9B1 whole entry, looked up): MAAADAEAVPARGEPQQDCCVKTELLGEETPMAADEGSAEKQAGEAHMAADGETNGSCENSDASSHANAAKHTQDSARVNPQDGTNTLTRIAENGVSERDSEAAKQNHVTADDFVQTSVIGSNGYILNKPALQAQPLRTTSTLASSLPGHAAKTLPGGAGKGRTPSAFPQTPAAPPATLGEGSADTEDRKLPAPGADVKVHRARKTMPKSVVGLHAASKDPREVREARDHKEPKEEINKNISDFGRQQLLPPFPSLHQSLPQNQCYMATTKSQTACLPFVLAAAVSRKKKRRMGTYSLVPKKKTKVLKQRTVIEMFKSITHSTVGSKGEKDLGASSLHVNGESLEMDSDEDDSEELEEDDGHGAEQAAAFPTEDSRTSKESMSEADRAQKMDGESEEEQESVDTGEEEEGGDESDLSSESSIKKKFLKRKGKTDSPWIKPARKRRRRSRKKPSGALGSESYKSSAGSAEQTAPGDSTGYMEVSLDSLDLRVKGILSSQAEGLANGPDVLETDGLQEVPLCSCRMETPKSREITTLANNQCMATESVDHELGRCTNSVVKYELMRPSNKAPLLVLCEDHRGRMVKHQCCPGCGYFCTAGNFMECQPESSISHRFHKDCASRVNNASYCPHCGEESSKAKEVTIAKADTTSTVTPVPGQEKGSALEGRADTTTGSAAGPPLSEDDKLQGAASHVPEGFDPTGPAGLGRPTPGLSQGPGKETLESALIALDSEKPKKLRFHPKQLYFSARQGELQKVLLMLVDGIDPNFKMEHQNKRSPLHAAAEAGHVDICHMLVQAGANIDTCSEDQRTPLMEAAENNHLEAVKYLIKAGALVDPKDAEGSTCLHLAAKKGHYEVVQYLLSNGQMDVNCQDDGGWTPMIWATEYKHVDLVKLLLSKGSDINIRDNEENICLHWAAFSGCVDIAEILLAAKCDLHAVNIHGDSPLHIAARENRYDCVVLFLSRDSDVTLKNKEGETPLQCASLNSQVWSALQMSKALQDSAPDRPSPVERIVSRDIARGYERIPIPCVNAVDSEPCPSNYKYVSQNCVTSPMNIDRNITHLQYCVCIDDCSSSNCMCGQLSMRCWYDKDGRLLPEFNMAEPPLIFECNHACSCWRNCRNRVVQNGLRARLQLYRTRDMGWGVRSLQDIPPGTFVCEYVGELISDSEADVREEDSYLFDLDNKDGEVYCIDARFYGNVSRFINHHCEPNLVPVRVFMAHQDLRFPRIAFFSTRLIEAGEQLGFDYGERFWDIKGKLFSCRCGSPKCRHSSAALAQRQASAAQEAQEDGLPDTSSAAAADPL

T1 sequence (Q96KQ7 2-1210 limits assumed): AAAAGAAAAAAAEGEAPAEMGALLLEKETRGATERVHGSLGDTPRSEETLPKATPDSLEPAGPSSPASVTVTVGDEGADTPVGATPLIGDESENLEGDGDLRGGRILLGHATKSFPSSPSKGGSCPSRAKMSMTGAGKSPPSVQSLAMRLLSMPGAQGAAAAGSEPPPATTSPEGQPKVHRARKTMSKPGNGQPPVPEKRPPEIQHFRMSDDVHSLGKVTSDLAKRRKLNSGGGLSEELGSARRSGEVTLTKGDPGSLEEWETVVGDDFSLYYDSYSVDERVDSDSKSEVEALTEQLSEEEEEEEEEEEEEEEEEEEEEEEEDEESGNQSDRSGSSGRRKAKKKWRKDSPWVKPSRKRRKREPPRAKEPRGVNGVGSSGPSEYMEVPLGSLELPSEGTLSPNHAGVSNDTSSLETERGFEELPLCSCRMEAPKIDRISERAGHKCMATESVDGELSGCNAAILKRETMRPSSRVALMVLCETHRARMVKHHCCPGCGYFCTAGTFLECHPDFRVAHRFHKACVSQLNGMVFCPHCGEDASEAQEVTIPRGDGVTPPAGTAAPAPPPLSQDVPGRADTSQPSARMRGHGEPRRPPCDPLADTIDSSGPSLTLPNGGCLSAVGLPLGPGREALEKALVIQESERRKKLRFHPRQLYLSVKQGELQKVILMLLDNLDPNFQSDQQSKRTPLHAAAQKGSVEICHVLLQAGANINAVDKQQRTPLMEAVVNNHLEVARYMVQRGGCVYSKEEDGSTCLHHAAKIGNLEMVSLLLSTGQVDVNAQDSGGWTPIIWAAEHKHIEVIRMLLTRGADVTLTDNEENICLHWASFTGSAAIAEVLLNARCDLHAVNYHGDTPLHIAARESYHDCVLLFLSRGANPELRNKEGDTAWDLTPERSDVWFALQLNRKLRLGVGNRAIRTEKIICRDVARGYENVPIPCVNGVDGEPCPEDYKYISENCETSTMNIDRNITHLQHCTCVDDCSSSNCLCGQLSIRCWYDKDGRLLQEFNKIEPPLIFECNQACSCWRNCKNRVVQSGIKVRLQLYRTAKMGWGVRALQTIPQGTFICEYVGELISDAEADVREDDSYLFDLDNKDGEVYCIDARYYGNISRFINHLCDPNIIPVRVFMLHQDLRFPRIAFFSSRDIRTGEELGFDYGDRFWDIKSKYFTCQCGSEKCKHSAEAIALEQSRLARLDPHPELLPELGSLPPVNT
T1 sequence (Q96SW2 whole entry partner): as the sequence (Q96SW2 whole entry, looked up) above

With COc1cc2c(NC3CCN(CCCC(=O)NCCCCCCCCNc4cccc5c4C(=O)N(C4CCC(=O)NC4=O)C5=O)CC3)nc(C3CCCCC3)nc2cc1OCCCN1CCCC1 (stereo unspecified) the Activity [1] was “Active”, the Activity (PANC-1 [2]) was “Tde” and the clearance [3] was 22.4 mL/min/kg. The Activity (PANC-1 [4]) was “Active”, the Activity [5] was “Active” and the Cmax [6] was 2670 ng/mL. For the same compound, the Activity [7] was “inactive”, the Activity (PANC-1 [8]) was “inactive” and the half-life [9] was 5.3 h. For the same compound, the Activity (PANC-1 [10]) was “inactive”, the Activity (Panc 05.04) was “Active” and the Activity (ASPC1 [11]) was “Active”. For the same compound, the CI (ASPC1 [12]) was under 0.4, the Activity (PANC-1 [13]) was “inactive” and the Activity (PANC-1 [14]) was “Active”. The Activity [15] was “inactive”.
